Here are results for 23 compounds from patent publication US7501419B2, “4-Squarylpiperazine derivatives as antiviral agents” (priority 2006, dated 2009).

Where only a bound is given, the exact number is not on record here.

The term EC50 denotes the midpoint of the concentration-response curve. Read a low EC50 as higher potency in that assay.

The subject of this test is HIV-1. The experiment in a line: Single-round infectious HIV-1 luciferase reporter virus infection of HeLa CD4 cells. The settings on record: Human immunodeficiency virus 1, HeLa, 72 h. The test is classed as cell-based. Here is the method: • Virus production—Human embryonic Kidney cell line, 293T, was propagated in Dulbecco's Modified Eagle Medium (Invitrogen, Carlsbad, Calif.) containing 10% fetal Bovine serum (FBS, Sigma, St. Louis, Mo.). • Virus infection—Human epithelial cell line, HeLa, expressing the HIV-1 receptor CD4 was propagated in Dulbecco's Modified Eagle Medium (Invitrogen, Carlsbad, Calif.) containing 10% fetal Bovine serum (FBS, Sigma, St. Louis , Mo.) and supplemented with 0.2 mg/mL Geneticin (Invitrogen, Carlsbad, Calif.).
Transfections were performed using lipofectAMINE PLUS reagent as described by the manufacturer (Invitrogen, Carlsbad, Calif.).
• 1. […] Compound was added in a 2 μl dimethylsulfoxide solution, so that the final assay concentration would be ≦10 μM. • 3. 100 μl of single-round infectious reporter virus in Dulbecco's Modified Eagle Medium was then added to the plated cells and compound at an approximate multiplicity of infection (MOI) of 0.01, resulting in a final volume of 200 μl per well. • 4. Virally-infected cells were incubated at 37 degrees Celsius, in a CO2 incubator, and harvested 72 h after infection. • 5. Viral infection was monitored by measuring luciferase expression from viral DNA in the infected cells using a luciferase reporter gene assay kit, as described by the manufacturer (Roche Molecular Biochemicals, Indianapolis, Ind.). Infected cell supernatants were removed and 50 μl of lysis buffer was added per well. After 15 minutes, 50 μl of freshly-reconstituted luciferase assay reagent was added per well. Luciferase activity was then quantified by measuring luminescence using a Wallac microbeta scintillation counter. • 6. […] An EC50 provides a method for comparing the antiviral potency of the compounds of this disclosure. The effective concentration for fifty percent inhibition (EC50) was calculated with the Microsoft Excel Xlfit curve fitting software. For each compound, curves were generated from percent inhibition calculated at 10 different concentrations by using a four parameter logistic model (model 205).
(In general: Reporter assays use an easily measured gene product as a stand-in for the process of interest.)

Take `O=C(C(=O)N1CCN(c2c(N3CCSCC3)c(=O)c2=O)CC1)c1c[nH]c2cccc(F)c12` [Number 21]: the EC50 was greater than 5000 nM.
As to `CCN(Cc1ccccc1)c1c(N2CCN(C(=O)C(=O)c3c[nH]c4cccc(F)c34)CC2)c(=O)c1=O` [Number 22], the EC50 is greater than 5000 nM.
The compound `O=C(C(=O)N1CCN(c2c(N3CCc4ccccc4C3)c(=O)c2=O)CC1)c1c[nH]c2cccc(F)c12` [Number 23] yielded a concentration for a half-maximal effect (EC50) greater than 5000 nM.
Consider `CN1CCN(c2c(N3CCN(C(=O)C(=O)c4c[nH]c5cccc(F)c45)CC3)c(=O)c2=O)CC1` [Number 24], for which the EC50 was greater than 5000 nM.
Then `CCCN(CCC)c1c(N2CCN(C(=O)C(=O)c3c[nH]c4cccc(F)c34)CC2)c(=O)c1=O` [Number 25], with greater than 5000 nM; and `O=C(C(=O)N1CCN(c2c(N3CCC4(CCCC4)CC3)c(=O)c2=O)CC1)c1c[nH]c2cccc(F)c12` [Number 26], with greater than 5000 nM; and `O=C(C(=O)N1CCN(c2c(-c3cccs3)c(=O)c2=O)CC1)c1c[nH]c2cccc(F)c12` [Number 27], with 50 to 500 nM.
`O=C(C(=O)N1CCN(c2c(-c3ccco3)c(=O)c2=O)CC1)c1c[nH]c2cccc(F)c12` [Number 28] displayed an EC50 of 500 to 5000 nM.
Then `COc1ncc(OC)c2c(C(=O)C(=O)N3CCN(c4c(-c5ccccc5)c(=O)c4=O)CC3)c[nH]c12` [Number 29], with 50 to 500 nM.
Turning to `COc1ncc(OC)c2c(C(=O)C(=O)N3CCN(c4c(-c5cccs5)c(=O)c4=O)CC3)c[nH]c12` [Number 30], the EC50 was 50 to 500 nM.
Then `COc1cnc(Cl)c2[nH]cc(C(=O)C(=O)N3CCN(c4c(-c5ccccc5)c(=O)c4=O)CC3)c12` [Number 31], with 50 to 500 nM; and `COc1ncc(OC)c2c(C(=O)C(=O)N3CCN(c4c(-c5ccccc5)c(=O)c4=O)C[C@H]3C)c[nH]c12` [Number 32], with 50 to 500 nM.
The same measure for `COc1ncc(OC)c2c(C(=O)C(=O)N3CCN(c4c(-c5ccccc5)c(=O)c4=O)C[C@@H]3C)c[nH]c12` [Number 33]: 50 to 500 nM; for `COc1cnc(Br)c2[nH]cc(C(=O)C(=O)N3CCN(c4c(-c5ccccc5)c(=O)c4=O)CC3)c12` [Number 34]: 50 to 500 nM; for `COc1cnc(-c2cnccn2)c2[nH]cc(C(=O)C(=O)N3CCN(c4c(-c5ccccc5)c(=O)c4=O)CC3)c12` [Number 35]: 50 to 500 nM.
Then `COc1cnc(-n2cncn2)c2[nH]cc(C(=O)C(=O)N3CCN(c4c(-c5ccccc5)c(=O)c4=O)CC3)c12` [Number 36], with 50 to 500 nM.
Turning to `COc1ncc(OC)c2c(C(=O)C(=O)N3CCN(c4c(-c5ncco5)c(=O)c4=O)CC3)c[nH]c12` [Number 37], the half-maximal effective concentration (EC50) is 500 to 5000 nM.
Then `COc1ncc(OC)c2c(C(=O)C(=O)N3CCN(c4c(-c5ccccc5)c(=O)c4=O)[C@@H](C)C3)c[nH]c12` [Number 38], with 50 to 500 nM; and `COc1ncc(OC)c2c(C(=O)C(=O)N3CCN(c4c(-c5ccccc5)c(=O)c4=O)[C@H](C)C3)c[nH]c12` [Number 39], with 50 to 500 nM; and `COc1cnc(-n2ccc(C)n2)c2[nH]cc(C(=O)C(=O)N3CCN(c4c(-c5ccccc5)c(=O)c4=O)CC3)c12` [Number 40], with 50 to 500 nM.
The same measure for `COc1ncc(OC)c2c(C(=O)C(=O)N3CCN(c4c(-c5ccc(F)cc5)c(=O)c4=O)CC3)c[nH]c12` [Number 41]: 50 to 500 nM; for `COc1cccc(-c2c(N3CCN(C(=O)C(=O)c4c[nH]c5c(OC)ncc(OC)c45)CC3)c(=O)c2=O)c1` [Number 42]: 50 to 500 nM.
`COc1ncc(OC)c2c(C(=O)C(=O)N3CCN(c4c(-c5nccs5)c(=O)c4=O)CC3)c[nH]c12` [Number 43] gave an EC50 of 500 to 5000 nM.
